Laboratory results as given in patent US6825217B2, “Carbinols for the treatment of neuropathic dysfunction” (Endo Pharmaceuticals, Inc., priority 2001, dated 2004).
Read-outs that look alike come from different tables or passages of the source.

Columns and labels:
[1] = sometimes fatally; U.S. Food and Drug Administration; cited from earlier work
[2] = CCI rats, cited from earlier work
Mouse Tail-Flick = type: in vivo; settings: Mus musculus; read-out: Mouse Tail-Flick ED50 (unit inferred)
Rat Hot Plate = type: in vivo
[3] = Mouse antiphenylquinone writhing (PQW) test; type: in vivo; settings: Mus musculus
Experimental: (§1) The anti-phenylquinone writhing (PQW) test modified from the methods of Siegmund et al. (Proc. Soc. Exp. Biol. Med. 95: 729-731, 1957) and Blumberg et al. (Proc. Exp. Biol. Med. 118: 763-767, 1965) was used to assess the relief from the simulated symptoms of neuropathic pain in mice. Male CF1 mice (Charles River Breeding Laboratories, Wilmington, Mass.), fasted for 16-22 hours and weighing 18-23 g, were injected with randomized and coded doses of test compounds, then challenged with 1.25 mg/kg i.p. phenyl-p-benzoquinone (phenylquinone) 5 minutes prior to the specified observation time. The phenylquinone solution (0.1 mg/ml in 5% aqueous ethanol) was prepared daily and stored in foil-wrapped amber bottles to limit degradation. Mice were observed 10 minutes for the presence or absence of the characteristic abdominal constriction and stretching response beginning 30 minutes after injection of the test compound. Activity was calculated as the percentage of mice failing to respond to the phenylquinone challenge dose. […] Median effective doses (ED50's) and 95% confidence limits were determined numerically by the methods of Thompson (Bacteriological Rev. 11: 115-145, 1947), and Litchfield and Wilcoxon (J. Pharmacol. Exp. Ther. 96: 99-113, 1949).

[4] = Chung model (tactile allodynia); type: in vivo, rat; settings: rat; two hours post injection; doses 200 mg/kg and 100 mg/kg
Experimental: This model for neuropathic pain was performed on rats using the surgical procedure described by Kim and Chung (1992) to induce an allodynic state. Briefly, the left L-5 and L-6 spinal nerves were isolated adjacent to the vertebral column and ligated with 6-0 silk suture distal to the dorsal root ganglion under isoflurane anesthesia. This model allows for spinal cord structural reorganization and growth of low threshold mechnoreceptor fibers from the spinal cord with synaptic connections and rewiring of the dorsal horn. This leads to spontaneous firing of invading sympathetic nerves and upregulation of receptors and voltage-dependent channels; i.e. mimics the development of allodynia (nociceptive response to a previously neutral stimulus). The rats were allowed a minimum of 7-days postoperative recovery period before testing.
To assess tactile thresholds in the Chung model, rats were placed in a clear plastic, wire mesh-bottomed cage, divided into individual compartments. Animals were allowed to acclimate and then baseline thresholds were assessed prior to drug treatment. To assess the 50% mechanical threshold for paw withdrawal, von Frey hairs were applied to the plantar mid-hindpaw, avoiding the tori (footpads). The eight von Frey hairs used are designated by [log (10*force required to bend hair, mg)] and range from 0.4-15.1 grams (#'s 3.61-5.18). Each hair was pressed perpendicularly against the paw with sufficient force to cause slight bending, and held for approximately 6-8 seconds. A positive response was noted if the paw was sharply withdrawn. Flinching immediately upon removal of the hair was also considered a positive response. Absence of a response (“−”) was cause to present the next consecutive stronger stimulus; a positive response (“+”) was cause to present the next weaker stimulus. Stimuli were presented successively until either six data points were collected, or the maximum or minimum stimulus was reached. If a minimum stimulus was reached and positive responses still occurred, the threshold was assigned an arbitrary minimum value of 0.25 grams; if a maximum stimulus was presented and no response occurred, a maximum threshold value of 15 grams was assigned. If a change in response occurs, either “−” to “+” or “+” to “−”, causing a change in the direction of stimulus presentation from descending to ascending or vice-versa, four additional data points were collected subsequent to the change.

Rat Tail-Flick = type: in vivo
Rat PQW = type: in vivo; settings: Rattus norvegicus
Experimental: as §1

Formalin model = type: in vivo; settings: rat, versus saline control
Text: Formalin induces inflammatory stimulation of peripheral nerves that results in sensitization of CNS nociceptive transmission pathways. There are two phases of formalin-induced nociception: phase I—an acute nociceptive component; and phase II—a chronic nociceptive component characterized by hyperalgesia.
On the morning of formalin testing, a small metal band (0.5 g) was loosely placed around the right hind paw. The rat was placed in a cylindrical Plexiglas chamber for adaptation for a minimum of 30 minutes. Compound A, venlafaxine or a saline control was administered into the dorsal surface of the right hindpaw of the rat. The animal was then placed into the chamber of the automated formalin apparatus where movement of the formalin-injected paw was monitored and the number of paw flinches tallied by minute over the next sixty minutes. Upon completion of the test the animal was removed and euthanized.

[5] = system: subunit of a voltage-gated calcium channel; settings: cited from earlier work
GABA receptors = settings: cited from earlier work
[6] = intraperitoneal, high doses of up to 600 mg/kg
[7] = intraperitoneal 10 to 75 mg/kg, at two and four hours

## CCN1CCC(c2cccc(Cl)c2)(C(C)O)CC1 (stereo not shown)
other
  melting point: 89 to 94 °C

## CN1CCC(c2cccc(Cl)c2)(C(C)(C)O)C1 (stereo not shown)
other
  melting point: 98 to 99 °C

## CC(O)C1(c2cccc(Cl)c2)CCCN(C)CC1 (stereo not shown)
other
  melting point: 123 to 124 °C

## NC(=O)OCC(COC(N)=O)c1ccccc1 [Felbamate, felbamate]
[1]
  toxicity in humans: liver failure and aplastic anemia
[2]; [6]
  heat hyperalgesia: completely abolished
  hindpaw guarding: completely abolished
  mechanical allodynia: completely abolished
  mechanical hyperalgesia: completely abolished
[2]; intraperitoneal
  responses in the control hindpaw: unaffected

## COc1cccc(C2(O)CCCCC2CN(C)C)c1 (stereo not shown) [TRAMADOL, Tramadol, reference compound]
Mouse Tail-Flick
  ED50: 31.2 mg/kg
Rat Hot Plate; Rattus norvegicus
  ED50: 40 mg/kg
[3]
  ED50: 7.8 mg/kg

## COc1ccc(C(CN(C)C)C2(O)CCCCC2)cc1 (stereo not shown) [Venlafaxine, reference compound]
[4]
  effects on tactile allodynia: statistically significant effects
Rat Tail-Flick
  Rat Tail-Flick: Inactive
Rat Hot Plate; rat
  Rat Hot Plate ED50: Inactive
Rat PQW
  ED50: 39.2 mg/kg
Formalin model; all administered doses (200/100/50 mg per kg)
  formalin test, paw flinches, phase I: statistically significant effects
Formalin model; all administered doses
  formalin test, paw flinches, phase II: statistically significant effects only during phases I and IIA
  formalin test, paw flinches, phase IIA: statistically significant effects
Formalin model
  formalin test, paw flinches, Phase IIB: No statistical significance

## NCC1(CC(=O)O)CCCCC1 [gabapentin]
[5]
  binding to a subunit of a voltage-gated calcium channel: binds with high affinity
GABA receptors
  effect on GABA receptors: no direct effect
[2]
  responses on the control side: no significant change
[2]; [7]
  heat hyperalgesia: suppressed
  mechanical allodynia: suppressed
[2]; intraperitoneal 10 to 75 mg/kg
  mechanical hyperalgesia: lacked effect
[2]; intraperitoneal, 24 hours
  responses at 24 hours: abnormal responses had returned
[2]; intrathecal to the lumbar spinal cord, 37.5 to 150 mcg/kg
  pattern of effects after intrathecal injection: the pattern was similar
